{"source": "patent US20120202794A1", "about": "(priority 2011, published 2012)", "key": {"HCV Replicon 1b": {"system": "HCV Replicon 1b", "experiment": "HCV inhibition assay, HCV replicon 1b (Clone A or ET-lunet cells; RT-PCR or luciferase reporter)", "format": "cell-based", "settings": "Hepatitis C virus, 96 h, HCV replicon 1b; 4 days incubation; read-out: Replicon 1b potency EC90", "in_short": "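Inhibition read either as luciferase signal (ET replicon) or as HCV 5′-NTR RNA by RT-PCR relative to rRNA, % = (1−2^−ΔΔCt)×100, against DMSO controls, giving EC50 and EC90. Cells: Clone A or ET-lunet, seeded 1500 or 3000/well, exposed 4 days at 37 °C, 5% CO2, 0.5% DMSO.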"}, "[1]": {"experiment": "Cell cytotoxicity assay (MTS), CC90 as reported in Table 1, cell line not stated", "format": "cell-based", "settings": "human; cell line not given", "in_short": "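MTS read-out (490 nm, 2 h dye step) after 8-day exposure at 37° C. Huh7, HepG2, BxPC3 were seeded at 2×10^3 and CEM at 5×10^3 cells/well, with compound serially diluted from 100 μM. CC90 comes from comparison with untreated control wells.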"}}, "data": [{"compound": "CC(C)C[C@H]1C(=O)N[C@@H](C2CCCCC2)CN1C(=O)[C@@H]1C[C@H]1c1ccc(Cl)cc1", "note": "[Compound 245, (3S,6S)-4-[(1R,2R)-2-(4-Chloro-phenyl)-cyclopropanecarbonyl]-6-cyclohexyl-3-isobutyl-piperazin-2-one]", "values": [{"measurement": "EC90", "setting": "HCV Replicon 1b", "result": 620, "unit": "nM"}, {"measurement": "CC90 at 8 days", "setting": "[1]", "result": "> 10000", "unit": "nM"}]}, {"compound": "CC(C)C[C@H]1C(=O)N[C@@H](C2CCCC2)CN1C(=O)[C@@H]1C[C@H]1c1ccc(Cl)cc1", "note": "[Compound 246, (3S,6S)-4-[(1R,2R)-2-(4-Chloro-phenyl)-cyclopropanecarbonyl]-6-cyclopentyl-3-isobutyl-piperazin-2-one]", "values": [{"measurement": "EC90", "setting": "HCV Replicon 1b", "result": 200, "unit": "nM"}, {"measurement": "CC90 at 8 days", "setting": "[1]", "result": "> 10000", "unit": "nM"}]}, {"compound": "CC(C)C[C@H]1C(=O)N[C@@H](c2ccccc2)CN1C(=O)[C@@H]1C[C@H]1c1ccc(F)cc1", "note": "[Compound 247, (3S,6S)-4-[(1R,2R)-2-(4-Fluoro-phenyl)-cyclopropanecarbonyl]-3-isobutyl-6-phenyl-piperazin-2-one]", "values": [{"measurement": "EC90", "setting": "HCV Replicon 1b", "result": 50, "unit": "nM"}, {"measurement": "CC90 at 8 days", "setting": "[1]", "result": "> 10000", "unit": "nM"}]}, {"compound": "CC(C)C[C@H]1C(=O)N[C@@H](c2ccccc2)CN1C(=O)[C@@H]1C[C@H]1c1ccc(Cl)cc1", "note": "[Compound 248, (3S,6S)-4-[(1R,2R)-2-(4-Chloro-phenyl)-cyclopropanecarbonyl]-3-isobutyl-6-phenyl-piperazin-2-one]", "values": [{"measurement": "EC90", "setting": "HCV Replicon 1b", "result": 160, "unit": "nM"}, {"measurement": "CC90 at 8 days", "setting": "[1]", "result": "> 10000", "unit": "nM"}]}, {"compound": "CC(C)C[C@H]1CN(C(=O)[C@@H]2C[C@H]2c2ccc(C(C)(C)C)cc2)[C@@H](CC(C)C)C(=O)N1", "note": "[Compound 249, (3S,6S)-4-[(1R,2R)-2-(4-tert-Butyl-phenyl)-cyclopropanecarbonyl]-3,6-diisobutyl-piperazin-2-one]", "values": [{"measurement": "EC90", "setting": "HCV Replicon 1b", "result": 750, "unit": "nM"}, {"measurement": "CC90 at 8 days", "setting": "[1]", "result": "> 10000", "unit": "nM"}]}, {"compound": "CC(C)C[C@H]1CN(C(=O)[C@@H]2C[C@H]2c2ccc(Cl)cc2F)[C@@H](CC(C)C)C(=O)N1", "note": "[Compound 250, (3S,6S)-4-[(1R,2R)-2-(4-Chloro-2-fluoro-phenyl)-cyclopropanecarbonyl]-3,6-diisobutyl-piperazin-2-one]", "values": [{"measurement": "EC90", "setting": "HCV Replicon 1b", "result": 360, "unit": "nM"}, {"measurement": "CC90 at 8 days", "setting": "[1]", "result": "> 10000", "unit": "nM"}]}, {"compound": "CCC[C@H]1CN(C(=O)[C@@H]2C[C@H]2c2ccc(Cl)cc2F)[C@@H](CC(C)C)C(=O)N1", "note": "[Compound 251]", "values": [{"measurement": "EC90", "setting": "HCV Replicon 1b", "result": 200, "unit": "nM"}, {"measurement": "CC90 at 8 days", "setting": "[1]", "result": "> 10000", "unit": "nM"}]}, {"compound": "CC(C)C[C@H]1C(=O)N[C@@H](C2CCCCC2)CN1C(=O)[C@@H]1C[C@H]1c1ccc(Cl)cc1F", "note": "[Compound 252]", "values": [{"measurement": "EC90", "setting": "HCV Replicon 1b", "result": 670, "unit": "nM"}, {"measurement": "CC90 at 8 days", "setting": "[1]", "result": "> 10000", "unit": "nM"}]}, {"compound": "CC(C)C[C@H]1C(=O)N[C@@H](C2CCCC2)CN1C(=O)[C@@H]1C[C@H]1c1ccc(Cl)cc1F", "note": "[Compound 253, (3S,6S)-4-[(1R,2R)-2-(4-Chloro-2-fluoro-phenyl)-cyclopropanecarbonyl]-6-cyclopentyl-3-isobutyl-piperazin-2-one]", "values": [{"measurement": "EC90", "setting": "HCV Replicon 1b", "result": 500, "unit": "nM"}, {"measurement": "CC90 at 8 days", "setting": "[1]", "result": "> 10000", "unit": "nM"}]}, {"compound": "CC(C)C[C@H]1C(=O)N[C@@H](C(C)C)CN1C(=O)[C@@H]1C[C@H]1c1ccc(Cl)cc1F", "note": "[Compound 254, (3S,6S)-4-[(1R,2R)-2-(4-Chloro-2-fluoro-phenyl)-cyclopropanecarbonyl]-3-isobutyl-6-isopropyl-piperazin-2-one]", "values": [{"measurement": "EC90", "setting": "HCV Replicon 1b", "result": 660, "unit": "nM"}, {"measurement": "CC90 at 8 days", "setting": "[1]", "result": "> 10000", "unit": "nM"}]}, {"compound": "CC(C)C[C@H]1C(=O)N[C@@H](c2ccccc2)CN1C(=O)[C@@H]1C[C@H]1c1ccc(Cl)cc1F", "note": "[Compound 255, (3S,6S)-4-[(1R,2R)-2-(4-Chloro-2-fluoro-phenyl)-cyclopropanecarbonyl]-3-isobutyl-6-phenyl-piperazin-2-one]", "values": [{"measurement": "EC90", "setting": "HCV Replicon 1b", "result": 360, "unit": "nM"}, {"measurement": "CC90 at 8 days", "setting": "[1]", "result": "> 10000", "unit": "nM"}]}, {"compound": "CC(C)C[C@H]1CN(C(=O)[C@@H]2C[C@H]2c2ccc(F)cc2F)[C@@H](CC(C)C)C(=O)N1", "note": "[Compound 256, (3S,6S)-4-[(1R,2R)-2-(2,4-Difluoro-phenyl)-cyclopropanecarbonyl]-3,6-diisobutyl-piperazin-2-one]", "values": [{"measurement": "EC90", "setting": "HCV Replicon 1b", "result": 220, "unit": "nM"}, {"measurement": "CC90 at 8 days", "setting": "[1]", "result": "> 10000", "unit": "nM"}]}, {"compound": "CCC[C@H]1CN(C(=O)[C@@H]2C[C@H]2c2ccc(F)c(F)c2)[C@@H](CC(C)C)C(=O)N1", "note": "[Compound 257, (3S,6S)-4-[(1R,2R)-2-(3,4-Difluoro-phenyl)-cyclopropanecarbonyl]-3-isobutyl-6-propyl-piperazin-2-one]", "values": [{"measurement": "EC90", "setting": "HCV Replicon 1b", "result": 590, "unit": "nM"}, {"measurement": "CC90 at 8 days", "setting": "[1]", "result": "> 10000", "unit": "nM"}]}]}
